From US20070158611A1, “Compositions comprising nanorods and methods of making and using them” (priority 2005, published 2007) come the findings set out here.

For this assay, the system named is Acidovorax delafieldii (ATCC #17505). Briefly: Bactericidal properties of silver nanofluids, colony count on NB agar plates. The assay is classed as cell-based. As for the experimental part:
The addition of nanostructures to fluids can prevent bacterial growth. The bactericidal properties of spherical silver colloid and silver nanorods was measured and compared with the bactericidal properties of silver nitrate. Lyophilized Acidovorax delafieldii (ATCC #17505) bacterium was reconstituted in Difco Nutrient Broth (NB), streaked onto NB agar plates and incubated for 24 hours at 37° C. A single colony was isolated and used to inoculate an NB culture that was grown to mid-log phase where the visibly cloudy solution has an optical density of 0.3 at a wavelength of 600 nm. 10 μL of this preculture (˜2.3×10^4 CFU/mL) was mixed with 5 mL of NB medium that contained 0.2 mg/mL, 0.02 mg/mL, 2 μg/mL, 0.02 μg/mL, and 0.002 μg/mL concentrations of either silver nitrate (AgNO3), silver colloid, or silver nanorods. […] Viable cells were enumerated by the colony count method on NB agar plates.

As for `O=[N+]([O-])[O-].[Ag+]` [AgNO3, silver nitrate], under “28 hours, 37° C.”, the “biocide activity compared with other silver samples” value is “highest biocide activity”. Besides, the CFU/mL (Acidovorax delafieldii in NB after 28 hours of incubation at 37° C., sample concentration as in Sample cell (text: 0.2 μg/mL Ag)) was 1.2 × 10^3 CFU/mL.
